From patent US8217045B2, “Organic compounds” (Novartis AG, priority 2007, dated 2012)
Positions count from the first letter of the chain named.

Experiments:
c-Abl (His-cAbl) = target: T1, c-Abl (His-cAbl) (Homo sapiens, UniProt P00519); assay: in vitro enzyme assay, wild-type Abl catalysed phosphorylation; assay type: biochemical; settings: 16 nM His-cAbl, 10 μM ATP, 1 hour at 30° C.; read-out: IC50, inhibition of wild-type Abl catalysed phosphorylation
T1 construct: The His-tagged kinase domain of Abl is cloned and expressed; His tag; made in house; host or cells: baculovirus/Sf9
T1 sequence (P00519 242-493 limits assumed): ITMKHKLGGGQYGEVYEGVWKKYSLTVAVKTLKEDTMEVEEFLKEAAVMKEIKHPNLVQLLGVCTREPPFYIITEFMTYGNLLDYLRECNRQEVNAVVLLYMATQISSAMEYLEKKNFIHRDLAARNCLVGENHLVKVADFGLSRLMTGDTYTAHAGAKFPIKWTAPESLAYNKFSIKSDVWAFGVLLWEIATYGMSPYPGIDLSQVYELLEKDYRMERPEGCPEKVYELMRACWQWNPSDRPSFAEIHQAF
Experimental: (§1) Test for activity against wild-type and mutant Abl protein tyrosine kinase:
(§2) The test, an in vitro enzyme assay, is conducted as a filter binding assay as follows: The His-tagged kinase domain of Abl is cloned and expressed in the baculovirus/Sf9 system as described by Bhat et al., J. Biol. Chem. 1997; 272:16170-16175. A protein of 37 kD (Abl kinase) is purified by a two-step procedure over a Cobalt metal chelate column followed by an anion exchange column with a yield of 1-2 mg/L of Sf9 cells. The purity of the Abl kinase is >90% as judged by SDS-PAGE after Coomassie blue staining.
(§3) Based on the optimized assay conditions for the individual kinases a specific assay set-up was chosen. The assays were prepared and incubated on a liquid handling robot system using 384-well plates. To the assay plates containing 50 nL compound or control solutions, 4.5 μL of solution A consisting of the peptide substrate and ATP in assay buffer were added. The reactions were initiated by adding 4.5 μL of solution B consisting of the respective kinase in assay buffer. The reactions were incubated for 1 hour at 30° C. in a final reaction volume of 9.05 μL. Based on a generic assay buffer (50 mM HEPES pH7.5, 1 mM DTT, 0.02% Tween20, 0.02% BSA), following components were added depending on the chosen kinase: • c-Abl: 16 nM His-cAbl, 5 μM peptide substrate (FITC-Ahx-EAIYAAPFAKKK-CONH2), 10 mM MgCl2, 10 μM ATP • c-Abl-T315I: 2.4 nM His-cAbl-T315I, 5 μM peptide substrate (FITC-Ahx-EAIYAAPFAKKK-CONH2), 10 mM MgCl2, 10 μM ATP
(§4) After incubation, the kinase reactions were stopped by the addition of 16 μL of stop solution (100 mM HEPES, 5% DMSO, 0.1% Coating reagent, 10 mM EDTA, 0.015% Brij 35). Subsequently, the assay plates were transferred to a Caliper LabChip3000 reader and the unphosphorylated substrate and the phosphorylated product were separated and quantitated in a microfluidic chip.

Bcr-Abl = Bcr-Abl (Homo sapiens, UniProt P00519); assay: Bcr-Abl phosphorylation capture ELISA in 32D-Bcr-Abl cells; assay type: cell-based, murine; settings: 90 min at 37° C., read-out: IC50, reduction of Bcr-Abl phosphorylation
From the text: 32D cl3 cells are obtained from the American Type Culture Collection (ATCC CRL11346) and Ba/F3 cells are obtained from the German Collection of Microorganisms and Cell Cultures (DSMZ, Braunschweig and DSMZ No. ACC 300) Palacios et al., Nature, 1984; 309:126 and Palacios et al., Cell, 1985:41:72.
Oncogene 1996; 12: 839-46; and Okuda K, Golub T R, Gilliland D G, Griffin J D. p210BCR-ABL, p190BCR-ABL, and TEL/ABL activate similar signal transduction pathways in hematopoietic cell lines. Oncogene 1996; 13:1147-52.)
The cells express the fusion Bcr-Abl protein with a constitutively active Abl kinase and proliferate growth factor independent. The cells are expanded in RPMI 1640 (AMIMED), 10% fetal calf serum (FCS), 2 mM glutamine (Gibco) (“complete medium”), and a working stock is prepared by freezing aliquots of 2×10^6 cells per vial in freezing medium (95% FCS, 5% DMSO (SIGMA)). After thawing, the cells are used during maximally 10-12 passages for the experiments. The antibody anti-Abl SH3 domain cat. #06-466 from Upstate Biotechnology is used for the ELISA. For detection of Bcr-Abl phosphorylation, the anti-phosphotyrosine antibody Ab PY20, labelled with alkaline phosphatase ([…]) from ZYMED (cat. #03-7722) is used. […]

[1] = target: T2, c-Abl-T315I (His-cAbl-T315I) (Homo sapiens, UniProt P00519, T315I); assay: in vitro enzyme assay, T315I mutant Abl catalysed phosphorylation; assay type: biochemical; settings: 2.4 nM His-cAbl-T315I, 10 μM ATP, 1 hour at 30° C.; read-out: IC50, inhibition of T315I mutant Abl catalysed phosphorylation
T2 construct: The His-tagged kinase domain of Abl is cloned and expressed; His tag; made in house; host or cells: baculovirus/Sf9
T2 sequence (P00519 242-493 T315I limits assumed): T1 sequence (P00519 242-493 limits assumed) with T74I
Experimental: as §1, §2, §3, §4

In the case of `CC(=O)Nc1cc(Oc2ccc3c(C(=O)Nc4cc(-n5cnc(C)c5)cc(C(F)(F)F)c4)cccc3c2)ccn1` [Example 1, 6-[[2-(Acetylamino)-pyridin-4-yl]oxy]-naphthalene-1-carboxylic acid [3-(4-methyl-1H-imidazol-1-yl)-5-(trifluoromethylphenyl)]amide], the IC50 (c-Abl (His-cAbl)) is reported as under 5 nM.
With `Cc1cn(-c2cc(NC(=O)c3cccc4cc(Oc5ccnc(NC(=O)C6CC6)c5)ccc34)cc(C(F)(F)F)c2)cn1` [Example 2, 6-[[2-(Cyclopropylcarbonyl)amino-pyridin-4-yl]oxy]-naphthalene-1-carboxylic acid [3-(4-methyl-1H-imidazol-1-yl)-5-(trifluoromethylphenyl)]amide] the melting point was 242 to 244 °C and the IC50 (Bcr-Abl) was 21 to 179 nM.
`Cc1cn(-c2cc(NC(=O)c3cccc4cc(Oc5ccnc(NC(=O)C(C)(C)C)c5)ccc34)cc(C(F)(F)F)c2)cn1` [Example 3] showed a melting point of over 120 °C.
In the case of `Cc1cn(-c2cc(NC(=O)c3cccc4cc(Oc5ccnc(NC(=O)C(C)(C)O)c5)ccc34)cc(C(F)(F)F)c2)cn1` [Example 4, 6-[[2-(2-Hydroxy-2-methylpropylcarbonyl)amino-pyridin-4-yl]oxy]-naphthalene-1-carboxylic acid [3-(4-methyl-1H-imidazol-1-yl)-5-(trifluoromethylphenyl)]amide], the melting point is reported as 248 to 251 °C.
`Cc1cn(-c2cc(NC(=O)c3cccc4cc(Oc5ccnc(NC(=O)N(C)C)c5)ccc34)cc(C(F)(F)F)c2)cn1` [Example 5] showed a melting point of over 138 °C and an IC50 (c-Abl (His-cAbl)) of under 5 nM.
With `Cc1cn(-c2cc(NC(=O)c3cccc4cc(Oc5ccnc(Nc6ccccn6)c5)ccc34)cc(C(F)(F)F)c2)cn1` [Example 6, 6-[[2-[(2-Pyridinyl)amino]-4-pyridinyl]oxy]-naphthalene-1-carboxylic acid [3-(4-methyl-1H-imidazol-1-yl)-5-(trifluoromethylphenyl)]amide] the melting point was 204 to 206 °C and the IC50 [1] was 47 to 49 nM.
For `CC(=O)Nc1cc(Oc2ccc3c(C(=O)Nc4ccc(CN5CCN(C)CC5)c(C(F)(F)F)c4)cccc3c2)ccn1` [Example 7, 6-[[2-(Acetylamino)-pyridin-4-yl]oxy]-naphthalene-1-carboxylic acid [4-[(4-methyl-1-piperazinyl)methyl]-3-trifluoromethyl-phenyl]amide], the melting point was 112 to 114 °C and the IC50 (c-Abl (His-cAbl)) was under 5 nM.
`CN1CCN(Cc2ccc(NC(=O)c3cccc4cc(Oc5ccnc(NC(=O)C6CC6)c5)ccc34)cc2C(F)(F)F)CC1` [Example 8, 6-[[2-(Cyclopropylcarbonyl)amino-pyridin-4-yl]oxy]-naphthalene-1-carboxylic acid [4-[(4-methyl-1-piperazinyl)methyl]-3-trifluoromethyl-phenyl]amide] showed an IC50 (c-Abl (His-cAbl)) of under 5 nM.
For `CN1C2CCCC1CN(Cc1ccc(NC(=O)c3cccc4cc(Oc5ccnc(NC(=O)C6CC6)c5)ccc34)cc1C(F)(F)F)C2` [Example 11], the IC50 (c-Abl (His-cAbl)) was under 5 nM.
In the case of `Cc1ncc(-c2cc(NC(=O)c3cccc4cc(Oc5ccnc(NC(=O)C6CC6)c5)ccc34)cc(C(F)(F)F)c2)[nH]1` [Example 15], the IC50 [1] is reported as 36 to 57 nM.
In the case of `CC(=O)Nc1cc(Oc2ccc3c(C(=O)Nc4cc(-n5cnc(C)c5)cc(C(F)(F)F)c4)cccc3c2)ncn1` [Example 19, 6-[[6-(Acetylamino)-pyrimidin-4-yl]oxy]-naphthalene-1-carboxylic acid [3-(4-methyl-imidazol-1-yl)-5-trifluoromethyl-phenyl]-amide], the IC50 (c-Abl (His-cAbl)) is reported as under 5 nM.
In the case of `Cc1cn(-c2cc(NC(=O)c3cccc4cc(Oc5cc(NC(=O)C6CC6)ncn5)ccc34)cc(C(F)(F)F)c2)cn1` [Example 20, 6-[[6-(Cyclopropanecarbonyl)amino-pyrimidin-4-yl]oxy]-naphthalene-1-carboxylic acid [3-(4-methyl-imidazol-1-yl)-5-trifluoromethyl-phenyl]-amide], the melting point is reported as 216 to 220 °C.
With `Cc1cn(-c2cc(NC(=O)c3cccc4cc(Oc5cc(N)ncn5)ccc34)cc(C(F)(F)F)c2)cn1` [Example 21, 6-[[6-Amino-pyrimidin-4-yl]oxy]-naphthalene-1-carboxylic acid [3-(4-methyl-imidazol-1-yl)-5-trifluoromethyl-phenyl]-amide] the melting point was over 148 °C.
`Cc1cn(-c2cc(NC(=O)c3cccc4cc(Oc5ccnc(Nc6nccs6)c5)ccc34)cc(C(F)(F)F)c2)cn1` [Example 22, 6-[[N-[2-(4-methyl-2-thiazolyl)amino]-pyridin-4-yl]oxy]-naphthalene-1-carboxylic acid [3-(4-methyl-1H-imidazol-1-yl)-5-(trifluoromethylphenyl)]amide] showed a melting point of 277 to 282 °C.
`Cc1cn(-c2cc(NC(=O)c3cccc4cc(Oc5ccnc(NC(=O)[C@@H]6CCCN6)c5)ccc34)cc(C(F)(F)F)c2)cn1` [Example 25, 6-[[2-[(2S)-2-Pyrrolidinecarbonyl]amino-pyridin-4-yl]oxy]-naphthalene-1-carboxylic acid [3-(4-methyl-1H-imidazol-1-yl)-5-(trifluoromethylphenyl)]amide] gave an IC50 [1] of 65 to 68 nM.
